# Literature values as cited in article PMC11170107, “Development of a new hazard scoring system in primary neuronal cell cultures for drug-induced acute neuronal toxicity identification in early drug discovery” (Frontiers in Pharmacology, 2024).
# Conditions: seizure ADR frequency in SIDER; ref Campillos et al., 2008; Kuhn et al., 2010; cited from earlier work
row,Structure (SMILES),SIDER ADR on-/off-label
1,Clc1ccc2c(c1)C(N1CCNCC1)=Nc1ccccc1O2 [Amoxapine],no frequency information
2,CC1(C)S[C@@H]2[C@H](NC(=O)[C@H](N)c3ccc(O)cc3)C(=O)N2[C@H]1C(=O)O [Amoxicillin],"very rare, postmarketing"
3,CN1CCc2cccc3c2[C@H]1Cc1ccc(O)c(O)c1-3 [Apomorphine],not found on label
4,O=C1CCc2ccc(OCCCCN3CCN(c4cccc(Cl)c4Cl)CC3)cc2N1 [Aripiprazole],Postmarketing
5,NC(=O)N1c2ccccc2C=Cc2ccccc21 [Carbamazepine],common
6,C[C@@](Cc1ccc(O)c(O)c1)(NN)C(=O)O [Carbidopa],no frequency information
7,CN1CCN(C(c2ccccc2)c2ccccc2)CC1 [Cyclizine],no frequency information
8,C[C@@H]1C[C@H]2[C@@H]3CCC4=CC(=O)C=C[C@]4(C)[C@@]3(F)[C@@H](O)C[C@]2(C)[C@@]1(O)C(=O)CO [Dexamethasone],no frequency information
9,COc1cccc2c1C(=O)c1c(O)c3c(c(O)c1C2=O)C[C@@](O)(C(=O)CO)C[C@@H]3O[C@H]1C[C@H](N)[C@H](O)[C@H](C)O1 [Doxorubicin],"postmarketing, uncommon"
10,NNC(=O)c1ccncc1 [Isoniazid],no frequency information
11,CC[C@@H](C(N)=O)N1CCCC1=O [Levetiracetam],2.38% - 6%
12,CNCCCC12CCC(c3ccccc31)c1ccccc12 [Maprotiline],no frequency information
13,CC(=O)/N=c1/sc(S(N)(=O)=O)nn1C [Methazolamide],no frequency information
14,COC(=O)C(c1ccccc1)C1CCCCN1 (stereo not drawn) [Methylphenidate],postmarketing
15,Cc1nccn1CC1CCc2c(c3ccccc3n2C)C1=O (stereo not drawn) [Ondansetron],uncommon
16,Cc1ccccc1C(OCCN(C)C)c1ccccc1 (stereo not drawn) [Orphenadrine],not found on label
17,CC[C@@H]1C(=O)OC[C@@H]1Cc1cncn1C [Pilocarpine],not found on label
18,CC(CN1c2ccccc2Sc2ccccc21)N(C)C (stereo not drawn) [Promethazine],no frequency information
19,Cc1ncc(CO)c(CO)c1O [Pyridoxine],not found on label
20,OC[C@@H](O)[C@@H](O)[C@H](O)[C@@H](O)CO [Sorbitol],no frequency information
21,NC[C@H]1CC[C@H](C(=O)O)CC1 [Tranexamic Acid],postmarketing

# Conditions: Supplementary Table S1; cited from earlier work
row,Structure (SMILES),Free Cmax highest [nM]
1,CC(=O)Nc1ccc(O)cc1 [Acetaminophen],540
2,NC12CC3CC(CC(C3)C1)C2 [Amantadine],2840
3,CCN(CC)C(C)C(=O)c1ccccc1 (stereo not drawn) [Amfepramone],90
4,Clc1ccc2c(c1)C(N1CCNCC1)=Nc1ccccc1O2 [Amoxapine],10
5,CC1(C)S[C@@H]2[C@H](NC(=O)[C@H](N)c3ccc(O)cc3)C(=O)N2[C@H]1C(=O)O [Amoxicillin],25830
6,CN1CCc2cccc3c2[C@H]1Cc1ccc(O)c(O)c1-3 [Apomorphine],0.4
7,O=C1CCc2ccc(OCCCCN3CCN(c4cccc(Cl)c4Cl)CC3)cc2N1 [Aripiprazole],11
8,NC(=O)N1c2ccccc2C=Cc2ccccc21 [Carbamazepine],12100
9,C[C@@](Cc1ccc(O)c(O)c1)(NN)C(=O)O [Carbidopa],550
10,CN(C)CCCN1c2ccccc2Sc2ccc(Cl)cc21 [Chlorpromazine],54
11,CN(C)CCCN1c2ccccc2CCc2ccc(Cl)cc21 [Clomipramine],9
12,CN1CCN(C2=Nc3cc(Cl)ccc3Nc3ccccc32)CC1 [Clozapine],70
13,COc1ccc2c3c1O[C@H]1[C@@H](O)C=C[C@H]4[C@@H](C2)N(C)CC[C@@]341 [Codeine],880
14,CN1CCN(C(c2ccccc2)c2ccccc2)CC1 [Cyclizine],105
15,C[C@@H]1C[C@H]2[C@@H]3CCC4=CC(=O)C=C[C@]4(C)[C@@]3(F)[C@@H](O)C[C@]2(C)[C@@]1(O)C(=O)CO [Dexamethasone],25
16,COc1cccc2c1C(=O)c1c(O)c3c(c(O)c1C2=O)C[C@@](O)(C(=O)CO)C[C@@H]3O[C@H]1C[C@H](N)[C@H](O)[C@H](C)O1 [Doxorubicin],3990
17,COc1ccc(Cl)cc1[C@]1(F)C(=O)Nc2cc(C(F)(F)F)ccc21 [Flindokalner],340
18,CN(C)CCCN1c2ccccc2CCc2ccccc21 [Imipramine],53
19,NNC(=O)c1ccncc1 [Isoniazid],57000

row,Structure (SMILES),Free Cmax highest [nM]
1,CC[C@@H](C(N)=O)N1CCCC1=O [Levetiracetam],276350
2,O=C1N(c2ccccc2)c2ccccc2C1(Cc1ccncc1)Cc1ccncc1 [Linopirdine],3000
3,CNCCCC12CCC(c3ccccc31)c1ccccc12 [Maprotiline],73.3
4,CC1CCN(CCCC(=O)c2ccc(F)cc2)CC1 [Melperone],240
5,CC(=O)/N=c1/sc(S(N)(=O)=O)nn1C [Methazolamide],20400
6,COC(=O)C(c1ccccc1)C1CCCCN1 (stereo not drawn) [Methylphenidate],165
7,COc1c(N2C[C@@H]3CCCN[C@@H]3C2)c(F)cc2c(=O)c(C(=O)O)cn(C3CC3)c12 [Moxifloxacin],8134
8,Cc1nccn1CC1CCc2c(c3ccccc3n2C)C1=O (stereo not drawn) [Ondansetron],51.3
9,Cc1ccccc1C(OCCN(C)C)c1ccccc1 (stereo not drawn) [Orphenadrine],10
10,CC[C@@H]1C(=O)OC[C@@H]1Cc1cncn1C [Pilocarpine],375
11,CC(CN1c2ccccc2Sc2ccccc21)N(C)C (stereo not drawn) [Promethazine],72
12,CC(C)NCC(O)COc1cccc2ccccc12 (stereo not drawn) [Propranolol],120
13,Cc1ncc(CO)c(CO)c1O [Pyridoxine],280
14,CC(C)(C)NCC(O)c1ccc(O)c(CO)c1 (stereo not drawn) [Salbutamol],56
15,CC(C)(C)C(O)/C=C/c1ccc2c(c1)OCO2 (stereo not drawn) [Stiripentol],670
16,Cn1c(=O)c2[nH]cnc2n(C)c1=O [Theophylline],26580
17,NC[C@H]1CC[C@H](C(=O)O)CC1 [Tranexamic Acid],101250
18,"C[C@@H]([C@@H](O)c1ccc(O)cc1)N1CCC(O)(c2ccccc2)CC1 [Traxoprodil (CP-101606), Traxoprodil]",94

# Same assay, conditions: cited from earlier work
row,Structure (SMILES),free Cmax concentration in man [nM]
1,NC[C@H]1CC[C@H](C(=O)O)CC1 [Tranexamic Acid],> 100000

# Conditions: WHO adverse drug reactions VigiBase; ref Kumlien and Lundberg, 2010; cited from earlier work
row,Structure (SMILES),Percentage seizures of total number of ADRs [%]
1,CC(=O)Nc1ccc(O)cc1 [Acetaminophen],0.4389
2,Clc1ccc2c(c1)C(N1CCNCC1)=Nc1ccccc1O2 [Amoxapine],4.864
3,CC1(C)S[C@@H]2[C@H](NC(=O)[C@H](N)c3ccc(O)cc3)C(=O)N2[C@H]1C(=O)O [Amoxicillin],0.1648
4,CC(N)Cc1ccccc1 (stereo not drawn) [Amphetamine],1.043
5,CN1CCc2cccc3c2[C@H]1Cc1ccc(O)c(O)c1-3 [Apomorphine],0.382
6,O=C1CCc2ccc(OCCCCN3CCN(c4cccc(Cl)c4Cl)CC3)cc2N1 [Aripiprazole],1.175
7,NC(=O)N1c2ccccc2C=Cc2ccccc21 [Carbamazepine],5.289
8,C[C@@](Cc1ccc(O)c(O)c1)(NN)C(=O)O [Carbidopa],0.8032
9,CN(C)CCCN1c2ccccc2Sc2ccc(Cl)cc21 [Chlorpromazine],1.468
10,CN1CCN(C(c2ccccc2)c2ccccc2)CC1 [Cyclizine],1.797
11,C[C@@H]1C[C@H]2[C@@H]3CCC4=CC(=O)C=C[C@]4(C)[C@@]3(F)[C@@H](O)C[C@]2(C)[C@@]1(O)C(=O)CO [Dexamethasone],0.5218
12,COc1cccc2c1C(=O)c1c(O)c3c(c(O)c1C2=O)C[C@@](O)(C(=O)CO)C[C@@H]3O[C@H]1C[C@H](N)[C@H](O)[C@H](C)O1 [Doxorubicin],0.3099
13,CN(C)CCCN1c2ccccc2CCc2ccccc21 [Imipramine],1.538
14,NNC(=O)c1ccncc1 [Isoniazid],0.676
15,CC[C@@H](C(N)=O)N1CCCC1=O [Levetiracetam],15.5539
16,Cc1ccc(F)c(NC(=O)Nc2ccc(-c3cccc4[nH]nc(N)c34)cc2)c1 [Linifanib],0
17,CNCCCC12CCC(c3ccccc31)c1ccccc12 [Maprotiline],7.924
18,CC(=O)/N=c1/sc(S(N)(=O)=O)nn1C [Methazolamide],0
19,Cc1nccn1CC1CCc2c(c3ccccc3n2C)C1=O (stereo not drawn) [Ondansetron],1.344
20,Cc1ccccc1C(OCCN(C)C)c1ccccc1 (stereo not drawn) [Orphenadrine],0.6083
21,CC[C@@H]1C(=O)OC[C@@H]1Cc1cncn1C [Pilocarpine],0.1965
22,CC(CN1c2ccccc2Sc2ccccc21)N(C)C (stereo not drawn) [Promethazine],1.639
23,Cc1ncc(CO)c(CO)c1O [Pyridoxine],0.4851
24,CC(C)(C)NCC(O)c1ccc(O)c(CO)c1 (stereo not drawn) [Salbutamol],0.3555
25,OC[C@@H](O)[C@@H](O)[C@H](O)[C@@H](O)CO [Sorbitol],0.6135
26,Cn1c(=O)c2[nH]cnc2n(C)c1=O [Theophylline],4.2336
27,NC[C@H]1CC[C@H](C(=O)O)CC1 [Tranexamic Acid],1.5

# Conditions: ref National library of medicine, Daylimed; cited from earlier work
row,Structure (SMILES),FDA prescription information at therapeutic dose (Convulsion/ Seizure/Lower the seizure threshold/withdrawal)
1,CC(=O)Nc1ccc(O)cc1 [Acetaminophen],not found on label
2,Clc1ccc2c(c1)C(N1CCNCC1)=Nc1ccccc1O2 [Amoxapine],on label
3,CC1(C)S[C@@H]2[C@H](NC(=O)[C@H](N)c3ccc(O)cc3)C(=O)N2[C@H]1C(=O)O [Amoxicillin],on label
4,CN1CCc2cccc3c2[C@H]1Cc1ccc(O)c(O)c1-3 [Apomorphine],not found on label
5,O=C1CCc2ccc(OCCCCN3CCN(c4cccc(Cl)c4Cl)CC3)cc2N1 [Aripiprazole],on label
6,NC(=O)N1c2ccccc2C=Cc2ccccc21 [Carbamazepine],not found on label
7,C[C@@](Cc1ccc(O)c(O)c1)(NN)C(=O)O [Carbidopa],on label
8,CN(C)CCCN1c2ccccc2Sc2ccc(Cl)cc21 [Chlorpromazine],On label
9,C[C@@H]1C[C@H]2[C@@H]3CCC4=CC(=O)C=C[C@]4(C)[C@@]3(F)[C@@H](O)C[C@]2(C)[C@@]1(O)C(=O)CO [Dexamethasone],On label
10,COc1cccc2c1C(=O)c1c(O)c3c(c(O)c1C2=O)C[C@@](O)(C(=O)CO)C[C@@H]3O[C@H]1C[C@H](N)[C@H](O)[C@H](C)O1 [Doxorubicin],On label
11,CN(C)CCCN1c2ccccc2CCc2ccccc21 [Imipramine],On label
12,NNC(=O)c1ccncc1 [Isoniazid],on label
13,CC[C@@H](C(N)=O)N1CCCC1=O [Levetiracetam],On label
14,CC(=O)/N=c1/sc(S(N)(=O)=O)nn1C [Methazolamide],On label
15,COC(=O)C(c1ccccc1)C1CCCCN1 (stereo not drawn) [Methylphenidate],On label
16,Cc1nccn1CC1CCc2c(c3ccccc3n2C)C1=O (stereo not drawn) [Ondansetron],on label
17,Cc1ccccc1C(OCCN(C)C)c1ccccc1 (stereo not drawn) [Orphenadrine],not found on label
18,CC[C@@H]1C(=O)OC[C@@H]1Cc1cncn1C [Pilocarpine],not found on label
19,CC(CN1c2ccccc2Sc2ccccc21)N(C)C (stereo not drawn) [Promethazine],on label
20,Cc1ncc(CO)c(CO)c1O [Pyridoxine],not found on label
21,OC[C@@H](O)[C@@H](O)[C@H](O)[C@@H](O)CO [Sorbitol],not found on label
22,NC[C@H]1CC[C@H](C(=O)O)CC1 [Tranexamic Acid],On label
